Assay results from publication PMC7242257, “Impact of Magnesium Stearate Presence and Variability on Drug Apparent Solubility Based on Drug Physicochemical Properties” (The AAPS Journal, 2020).

Assays:
[1] = design: method as in earlier work; conditions: based on BCS classification (20); ref (24), (26), (28), (29), (31), (34), (35), (38); cited from earlier work
[2] = Relative effect of MgSt on drug apparent solubility (shake-flask, physical mixtures); conditions: phosphate buffer pH 6.8
Experimental: Drug solubility studies in the absence and presence of excipient were performed in triplicate using the shake-flask method [41]. Drug excess amount and 2% w/w or 5% w/w of each excipient were weighed and placed in centrifuge tubes. […] The physical mixtures were vortexed for 3 min. Five millilitres of each medium was added in the tubes and the samples were placed in a shaking water bath (37°C, 200 strokes per minute (spm)). […] Filter adsorption studies were performed prior in triplicate for each drug. […] Filtered samples were further diluted (if needed) with the corresponding medium and analysed by HPLC (Supplementary Table I). […] Drug quantification was made based on calibration curves. Standards were formulated from concentrated stock solutions consisting of drug dissolved in MeOH. As changes in the pH of solutions by the presence of the dissolved drug [34] or MgSt [43, 44] may affect drug solubility, the pH of samples after the completion of each experiment was measured. Drug solubility was calculated based on the sample drug concentration measured.
The relative effect (RE) of each excipient on drug apparent solubility was calculated based on Eq.

Structure (SMILES) | Solubility (BCS-based class) [1] | Relative effect (RE) on drug solubility at 24 h ([2]; 2% Ligamed MF-2-V) [%] | Relative effect (RE) on drug solubility at 24 h ([2]; 2% Ligamed MF-3-V) [%]
OCCN(CCO)c1nc(N2CCCCC2)c2nc(N(CCO)CCO)nc(N3CCCCC3)c2n1 [DPL, Dipyridamole] | Low (34) |  | 
CCC(C)n1ncn(-c2ccc(N3CCN(c4ccc(OCC5COC(Cn6cncn6)(c6ccc(Cl)cc6Cl)O5)cc4)CC3)cc2)c1=O (centres unmarked) [ITZ, Itraconazole] | Low (38) |  | 
NC(=O)N1c2ccccc2C=Cc2ccccc21 [CBZ, Carbamazepine] | Low (31) | 29 | 27
